The values that follow come from patent publication US20250064773A1, “TARGETING ERO1 ALPHA WITH AURONE DERIVATIVES” (West Virginia University Board of Governors on behalf of …, priority 2021, published 2025).

This assay has as its system PC-9 ERO1α knockout clones. The assay is described as follows: Soft agar clonogenic assay, PC-9 ERO1α knockout clones. It is filed as cell-based. To be noted: 14 days, 3.75-15 μM. How it is done:
We utilized an MTT assay to determine the potency of the compounds for inhibiting cell growth. […] We next asked whether T151742 induced inhibition of cell growth was dependent on ERO1α expression. As shown in FIG. 6C two ERO1α deleted clones in the PC-9 cell line were isolated. Using an MTT assay to determine overall cellar viability, a non-targeted control (scramble), and both ERO1α knockout clones was subjected to treatment with T151742 for 72 hours (See FIG. 6D). […] Though only slight differences were observed between T151742 and EN-460 we tested the effects of these compounds in a clonogenic assay which is a better test for inhibition of self-renewal.
FIG. 7A and FIG. 7B show 1000 cells/well were plated in a 12-well plate in triplicate with either 0.5% DMSO, T151742, or EN-460 and allowed to form colonies for 14 days. Colonies were subsequently stained with 0.01% Crystal Violet, imaged, and quantified using ImageJ. […] Colonies were stained with 0.01% Crystal Violet, imaged, and quantified using ImageJ.
Cell Lines: PC-9 cell line used was obtained from Sigma Aldrich and grown in RPMI 1640 medium with 10% fetal bovine serum and 1% penicillin/streptomycin. […] Plate was then read on the BioTek Cytation 5 at 530/590 nm. […] Plate was then read at 570 nm. […] Images were then quantified using ImageJ. […]

Take `CN(C)c1ccc(/C=C2\Oc3cc(O)ccc3C2=O)cc1` [Compound T151742]: the “sensitivity of ERO1α knockout clones in clonogenic assay” value is on record as “completely resistant”.
